EP3298025B1, “NEW AMINO ACID SEQUENCES WITH MI[…] DERIVED FROM NAJA ATRA CARDIOTOXIN 1 (CTX-1)” (Università degli Studi di Parma, priority 2015, dated 2016)
No end group written: not given here.

Experiments:
[1] = at 40 µg / ml; cited from earlier work
[2] = system: epithelial MDBK cells (Madin Darby Bovine Kidney); assay: cytotoxicity against eukaryotic cells, Trypan Blue; format: cell-based; settings: overnight incubation
Method: Peptides cytotoxicity against epithelial MDBK cells (Madin Darby Bovine Kidney) was determined using cell cultures of about 5x10^5 cells/ml with and without peptides, with overnight incubation at 37°C with CO2. The negative control was in medium without peptide; positive control was in medium with 0.2% of Triton x100, to completely lyse cells. Cells vitality was assessed adding every well with 20 µl of Trypan Blue, incubating other 5 minutes at 37°C. MCC10 was the minimal peptide concentration with 10% of cytotoxicity.

[3] = system: Mutton RBCs; assay: haemolysis test; format: cell-based; settings: maximum concentration 100 µg/ml; 1 hour at room temperature
Method: Mutton RBCs, sampled immediately before the test, were washed with isotonic buffer to obtain clear supernatant. The washed RBCs were incubated with different peptide concentrations for 1 hour at room temperature. After this the solution was centrifuged and the haemolysis in the supernatant quantified with a spectrophotometer at 450 nm. The positive control was RBC lysed with 0,1% of Tryton. The sample determined the maximal optical density. The haemolysis percentage was calculated as sample optical density at 450 nm and positive control optical density ratio. MHC10 was the minimal peptide concentration able to lyse 10% of RBC.

Row | Sequence | hemolysis [1] | Cytotoxicity: cell number percentage reduction in comparison with control ([2]; peptide 12.5 µg/ml) [%] | Cytotoxicity: cell number percentage reduction in comparison with control ([2]; peptide 100 µg/ml) [%] | haemolytic effect [3] [%]
1 | KFFKFFKFFK [synthetic peptide consisting of cationic lysine residues and hydrophobic phenylalanine residues] | severely hemolytic |  |  | 
2 | KLIPILSKTIPAIKNLFYKI [NCP-2] |  | 3 | 5 | < 10
3 | KLIWILSKTIPAIKNLFYKI [NCP-3] |  | 3 | 7 | < 10
